Test results reported in patent US10155751B2, “Pyrazolyl-substituted heteroaryls and their use as medicaments” (Boehringer Ingelheim International GmbH, priority 2015, dated 2018).

What follows are compounds tested against Recombinant human FLT3 (amino acids 564-958) (Homo sapiens (Human), UniProt P36888) (assay: FLT3 kinase test (ADP Glo)). Conditions: read-out: FLT3 inhibition IC50-value (chapter 5.4).
Format: biochemical
Protocol: The activity of the FLT3 kinase protein was determined using the ADP Glo® Luminescence Kinase test (Promega; V9103X). In this homogeneous test the amount of ADP remaining after the kinase reaction is quantified by a luciferin-luciferase reaction using luminescence. The luminescence signal obtained correlates with the amount of ADP still present and thus correlates with the activity of the protein kinase.
The test compounds were dissolved in 100% DMSO at a concentration of 10 mM and diluted in DMSO to a concentration of 5 mM. Serial Dilution is done in 1:10 steps in 100% DMSO. All further dilutions of the substances were carried out with test buffer (50 mM Hepes, pH 7.5, 10 mM MgCl2, 1 mM EGTA, 0.01% Brij35, 0.1% BSA) until a concentration was reached which was 2.5 times above the final test concentration (final concentration of the compounds: 50 μM to 0.005 nM). […] FLT3 enzyme was diluted to 5 nM in the test buffer and 4 μl of this dilution were used in the kinase test (final concentration of FLT3=2 nM in a total volume of 10 μl). After 60 minutes incubation at room temperature 2 μl mixture of 2.5 mg/ml substrate (Poly-Glu/Tyr; Sigma #P0275) and 2.5 mM ultra-pure ATP (Promega #V915B) in test buffer were added to each well and the incubation was continued for a further 90 minutes at room temperature.
Positive controls are the reaction mixtures that contain no test substance; negative controls (blanks) are reaction mixtures that contain no kinase.
After 90 minutes, 10 μl ADP-Glo® solution (ADP-Glo Reagent #V912B Promega) (heated to room temperature) were added to each well and incubation was continued for a further 60. minutes. Then 20 μl Kinase detection mix (Detection Buffer #V913B Promega; Kinase Detection Substrate #V914B Promega) were added and incubated for 40 minutes at room temperature. The plates were read in Envision Luminescence Reader (Perkin-Elmer).
The output file of the reader is a csv file that contains the well number and measured RLU. For data evaluation and calculation, the measurement of the negative control was set as 0% ctrl and the measurement of the positive control was set as 100% ctrl. Based on this values the % value for the measurement of each substance concentration can be calculated using an Assay Explorer software (e.g. Accelrys). Normally, the % ctrl values calculated are between 0% and 100% values but may also occur outside these limits in individual cases based on variability or compound characteristics. The IC50 values were calculated from the % ctrl values using Assay Explorer software. Calculation: [y=(a−d)/(1+(x/c)^b)+d], a=low value, d=high value; x=conc. M; c=IC50 M; b=hill; y=% ctrl.

Recombinant human FLT3 (amino acids 564-958), sequence (P36888 564-958): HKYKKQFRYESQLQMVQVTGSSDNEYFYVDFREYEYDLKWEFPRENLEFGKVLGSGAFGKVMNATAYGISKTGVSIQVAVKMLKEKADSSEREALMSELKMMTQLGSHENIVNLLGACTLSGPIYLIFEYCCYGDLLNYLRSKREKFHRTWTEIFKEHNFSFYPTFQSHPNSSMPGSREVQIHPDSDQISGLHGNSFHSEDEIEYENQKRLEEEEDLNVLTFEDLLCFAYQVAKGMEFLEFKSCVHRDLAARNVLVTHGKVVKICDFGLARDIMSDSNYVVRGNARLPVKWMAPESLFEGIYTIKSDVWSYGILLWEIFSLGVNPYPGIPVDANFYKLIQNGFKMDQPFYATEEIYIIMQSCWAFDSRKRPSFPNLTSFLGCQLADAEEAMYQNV

**Q.** Which IC50 does the source give for `Cc1c2c(O[C@H](C)[C@H]3CNC(=O)C3)cc(-c3cnn(CC4CC4)c3)cc2nn1C` [Example 8, (R)-4-{(R)-1-[6-(1-Cyclopropylmethyl-1H-pyrazol-4-yl)-2,3-dimethyl-2H-indazol-4-yloxy]-ethyl}-pyrrolidin-2-one] here?
**A.** 2070 nM

**Q.** How did the IC50 turn out when `C[C@@H](Oc1cc(-c2cnn(C3CCC(F)(F)C3)c2)cc2nn(C)c(F)c12)[C@H]1CNC(=O)C1` (stereo partly shown) [Example 7] was run?
**A.** 2440 nM

**Q.** How did the IC50 turn out when `Cc1c2c(O[C@H](C)[C@H]3CNC(=O)C3)cc(-c3cnn(C4CC4)c3)cc2nn1C` [Example 20, (R)-4-{(R)-1-[6-(1-Cyclopropyl-1H-pyrazol-4-yl)-2,3-dimethyl-2H-indazol-4-yloxy]-ethyl}-pyrrolidin-2-one] was run?
**A.** 3320 nM

**Q.** For `Cc1cc2c(O[C@H](C)[C@H]3CNC(=O)C3)cc(-c3cnn(C(C)(C)C)c3)cn2n1` [example 6.60 on page 587 of WO15017610, reference compound], which IC50 is on record?
**A.** 6680 nM

**Q.** How did the IC50 turn out when `Cc1c2c(O[C@H](C)[C@H]3CNC(=O)C3)cc(-c3cnn(C(C)(C)C#N)c3)cc2nn1C` [Example 17, 2-(4-{2,3-Dimethyl-4-[(R)-1-((R)-5-oxo-pyrrolidin-3-yl)-ethoxy]-2H-indazol-6-yl}-pyrazol-1-yl)-2-methyl-propionitrile] was run?
**A.** 11300 nM

**Q.** With `CC(C)n1cc(-c2cc(O[C@H](C)[C@H]3CNC(=O)C3)c3c(F)n(C)nc3c2)cn1` [Example 2, (R)-4-{(R)-1-[3-Fluoro-6-(1-isopropyl-1H-pyrazol-4-yl)-2-methyl-2H-indazol-4-yloxy]-ethyl}-pyrrolidin-2-one] as the compound, how does the IC50 read?
**A.** 2830 nM

**Q.** Which IC50 does the source give for `Cc1c2c(O[C@H](C)[C@H]3CNC(=O)C3)cc(-c3cnn(C4CCC4)c3)cc2nn1C` [Example 21, (R)-4-{(R)-1-[6-(1-Cyclobutyl-1H-pyrazol-4-yl)-2,3-dimethyl-2H-indazol-4-yloxy]-ethyl}-pyrrolidin-2-one] here?
**A.** 2210 nM

**Q.** For `Cc1cnn2cc(-c3cnn(C(C)(C)C)c3)nc(O[C@H](C)[C@H]3CNC(=O)C3)c12` [example 5.20 on page 506 of WO15017610, reference compound], which IC50 is on record?
**A.** 43 nM

**Q.** For `Cc1c2c(O[C@H](C)[C@H]3CNC(=O)C3)cc(-c3cnn([C@@H]4CCOC(C)(C)C4)c3)cc2nn1C` [Example 9, (R)-4-((R)-1-{6-[1-((R)-2,2-Dimethyl-tetrahydro-pyran-4-yl)-1H-pyrazol-4-yl]-2,3-dimethyl-2H-indazol-4-yloxy}-ethyl)-pyrrolidin-2-one], which IC50 is on record?
**A.** 1840 nM

**Q.** `C[C@@H](Oc1cc(-c2cnn(C3CC3)c2)cc2nn(C)c(F)c12)[C@H]1CNC(=O)C1` [Example 5, (R)-4-{(R)-1-[6-(1-Cycloprop-yl-1H-pyrazol-4-yl)-3-fluoro-2-methyl-2H-indazol-4-yloxy]-ethyl}-pyrrolidin-2-one] was tested. Which IC50 did it give?
**A.** 3990 nM

**Q.** How did the IC50 turn out when `Cc1c2c(O[C@H](C)[C@H]3CNC(=O)C3)cc(-c3cnn([C@H]4CO[C@@H]5CCCO[C@@H]54)c3)cc2nn1C` [Example 10, 4-(1-{6-[(R)-(3S,3aR,7aR)-1-(Hexahydro-furo[3,2-b]pyran-3-yl)-1H-pyrazol-4-yl]-2,3-dimethyl-2H-indazol-4-yloxy}-ethyl)-pyrrolidin-2-one] was run?
**A.** 2020 nM

**Q.** How did the IC50 turn out when `Cc1c2c(O[C@H](C)[C@H]3CNC(=O)C3)cc(-c3cnn(CCF)c3)cc2nn1C` [Example 11, (R)-4-((R)-1-{6-[1-(2-Fluoro-ethyl)-1H-pyrazol-4-yl]-2,3-dimethyl-2H-indazol-4-yloxy}-ethyl)-pyrrolidin-2-one] was run?
**A.** 3480 nM

**Q.** How did the IC50 turn out when `Cc1c2c(O[C@H](C)[C@H]3CNC(=O)C3)nc(-c3c[nH]nc3C(C)(C)C)cc2nn1C` [Example 4, (R)-4-{(R)-1-[6-(3-tert-Butyl-1H-pyrazol-4-yl)-2,3-dimeth-yl-2H-pyrazolo[4,3-c]pyridin-4-yloxy]-ethyl}-pyrrolidin-2-one] was run?
**A.** 7410 nM

**Q.** `Cc1c2c(O[C@H](C)[C@H]3CNC(=O)C3)cc(-c3cnn(C4CC(C)(C)OC4(C)C)c3)cc2nn1C` (stereo partly drawn) [Example 16, (R)-4-((R)-1-{2,3-Dimethyl-6-[1-(2,2,5,5-tetramethyl-tetrahydro-furan-3-yl)-1H-pyrazol-4-yl]2H-indazol-4-yloxy}-ethyl)-pyrrolidin-2-one] was tested. Which IC50 did it give?
**A.** 3490 nM

**Q.** `Cc1c2c(O[C@H](C)[C@H]3CNC(=O)O3)nc(-c3cnn(C(C)(C)C)c3)cc2nn1C` [Example 3, (R)-5-{(R)-1-[6-(1-tert-Butyl-1H-pyrazol-4-yl)-2,3-dimethyl-2H-pyrazolo[4,3-c]pyridin-4-yloxy]-ethyl}-oxazolidin-2-one] was tested. Which IC50 did it give?
**A.** 1340 nM

**Q.** Which IC50 does the source give for `Cc1c2c(O[C@H](C)[C@H]3CNC(=O)C3)cc(-c3cnn(C(C)C)c3)cc2nn1C` [Example 18, (R)-4-{(R)-1-[6-(1-Isopropyl-1H-pyrazol-4-yl)-2,3-dimethyl-2H-indazol-4-yloxy]-ethyl}-pyrrolidin-2-one] here?
**A.** 4670 nM

**Q.** How did the IC50 turn out when `Cc1cnn2cc(-c3cnn(C(C)(C)C)c3)cc(O[C@H](C)[C@H]3CNC(=O)C3)c12` [example 6.09 on page 559 of WO15017610, reference compound] was run?
**A.** 25 nM

**Q.** With `C[C@@H](Oc1cc(-c2cnn(C(C)(C)C)c2)cc2ncn(C)c12)[C@H]1CNC(=O)C1` [example 3B.22 on page 219 of WO15017610, reference compound] as the compound, how does the IC50 read?
**A.** 307 nM

**Q.** How did the IC50 turn out when `C[C@@H](Oc1nc(-c2cnn(C(C)(C)C)c2)cc2ncn(C)c12)[C@H]1CNC(=O)C1` [example 3A.02, on page 196 of WO15017610, reference compound] was run?
**A.** 384 nM

**Q.** Which IC50 does the source give for `Cc1c2c(O[C@H](C)[C@H]3CNC(=O)C3)cc(-c3cnn(CC(C)C)c3)cc2nn1C` [Example 19, (R)-4-{(R)-1-[6-(1-Isobutyl-1H-pyrazol-4-yl)-2,3-dimethyl-2H-indazol-4-yloxy]-ethyl}-pyrrolidin-2-one] here?
**A.** 4950 nM

**Q.** For `C[C@@H](Oc1cc(-c2cnn(CCC(F)(F)F)c2)cc2nn(C)c(F)c12)[C@H]1CNC(=O)C1` [Example 12, (R)-4-((R)-1-{3-Fluoro-2-methyl-6-[1-(3,3,3-trifluoro-propyl)-1H-pyrazol-4-yl]-2H-indazol-4-yloxy}-ethyl)-pyrrolidin-2-one], which IC50 is on record?
**A.** 5030 nM

**Q.** How did the IC50 turn out when `C[C@@H](Oc1cc(-c2cnn(C3CC(C)(C)OC3(C)C)c2)cc2nn(C)c(F)c12)[C@H]1CNC(=O)C1` (stereo partly drawn) [Example 14, (R)-4-((R)-1-{3-Fluoro-2-methyl-6-[1-(2,2,5,5-tetramethyl-tetrahydro-furan-3-yl)-1H-pyrazol-4-yl]-2H-indazol-4-yloxy}-ethyl)-pyrrolidin-2-one] was run?
**A.** 4050 nM

**Q.** With `C[C@@H](Oc1cc(-c2cnn(CC3CC3)c2)cc2nn(C)c(F)c12)[C@H]1CNC(=O)C1` [Example 6, (R)-4-{(R)-1-[6-(1-Cycloprop-ylmethyl-1H-pyrazol-4-yl)-3-fluoro-2-methyl-2H-indazol-4-yloxy]-ethyl}-pyrrolidin-2-one] as the compound, how does the IC50 read?
**A.** 3730 nM

**Q.** With `Cc1c2c(O[C@H](C)[C@H]3CNC(=O)C3)cc(-c3cnn(C(C)(C)C)c3)cc2nn1C` [Example 13, (R)-4-{(R)-1-[6-(1-tert-Butyl-1H-pyrazol-4-yl)-2,3-dimethyl-2H-indazol-4-yloxy]-ethyl}-pyrrolidin-2-one] as the compound, how does the IC50 read?
**A.** 5220 nM

**Q.** With `Cc1c2c(O[C@H](C)[C@H]3CNC(=O)C3)cc(-c3cnn(C4CCC(F)(F)C4)c3)cc2nn1C` (stereo partly drawn) [Example 22, (R)-4-((R)-1-{6-[1-(3,3-Difluoro-cyclopentyl)-1H-pyrazol-4-yl]-2,3-dimethyl-2H-indazol-4-yloxy}-ethyl)-pyrrolidin-2-one] as the compound, how does the IC50 read?
**A.** 1950 nM

**Q.** For `C[C@@H](Oc1cc(-c2cnn(C3CCC3)c2)cc2nn(C)c(F)c12)[C@H]1CNC(=O)C1` [Example 1, (R)-4-{(R)-1-[6-(1-Cyclobutyl-1H-pyrazol-4-yl)-3-fluoro-2-methyl-2H-indazol-4-yloxy]-ethyl}-pyrrolidin-2-one], which IC50 is on record?
**A.** 2230 nM

Same assay, conditions: read-out: IC50(FLT3)

**Q.** With `Cc1cc2c(O[C@H](C)[C@H]3CNC(=O)C3)cc(-c3cnn(C(C)(C)C)c3)cn2n1` [example 6.60 on page 587 of WO15017610, reference compound] as the compound, how does the IC50 read?
**A.** 6680 nM

**Q.** For `Cc1cnn2cc(-c3cnn(C(C)(C)C)c3)nc(O[C@H](C)[C@H]3CNC(=O)C3)c12` [example 5.20 on page 506 of WO15017610, reference compound], which IC50 is on record?
**A.** 43 nM

**Q.** With `Cc1cnn2cc(-c3cnn(C(C)(C)C)c3)cc(O[C@H](C)[C@H]3CNC(=O)C3)c12` [example 6.09 on page 559 of WO15017610, reference compound] as the compound, how does the IC50 read?
**A.** 25 nM

**Q.** Which IC50 does the source give for `C[C@@H](Oc1cc(-c2cnn(C(C)(C)C)c2)cc2ncn(C)c12)[C@H]1CNC(=O)C1` [example 3B.22 on page 219 of WO15017610, reference compound] here?
**A.** 307 nM

**Q.** How did the IC50 turn out when `C[C@@H](Oc1nc(-c2cnn(C(C)(C)C)c2)cc2ncn(C)c12)[C@H]1CNC(=O)C1` [example 3A.02, on page 196 of WO15017610, reference compound] was run?
**A.** 384 nM
